A short description of experiment [1]: Binding affinity (Kd) between peptide and LPS by isothermal titration calorimeter (ITC). The settings on record: for pKd: 0.2 mM peptide in cell, 2 mM LPS in syringe, PBS, read-out: Kd (calculated by ITC). The method, then: FP1 is denoted as wild type (WT), and peptides having point mutations for various parts in WT were prepared (FP3, FP5, FP6, and FP9). To increase the interaction with LPS in the residue sequence of FP3, peptides were designed based on an FP3 and LPS-binding model (FP12-NH2 and FP13-NH2), and non-natural amino acid and amino acid isomers (allomeric D-type amino acids) were additionally introduced, thereby designing peptides (allD FP12-NH2, allD FP13-NH2, allD FP-13-9a, allD FP-13-9w, allD FP-13-9k, and allD FP13-NH2 (AcOH)). In addition, an N-terminal PEGylated peptide (PEG-allD FP13-NH2(AcOH)) was additionally designed and synthesized by Anygen Co. Ltd., and then supplied. Using each of the provided peptides, lipopolysaccharide (LPS), and an isothermal titration calorimeter (ITC) for measuring binding affinity (Kd), binding affinity with LPS was confirmed.
Specifically, a method of analyzing binding affinity (Kd) between a peptide and LPS is as follows.
The binding affinity was measured using Malvern MicroCal PEAQ-ITC cell equipment, and to confirm the interaction with LPS, pre-treatment was performed as follows. The volume and shape of a cell sample were 300 μL, coin-shaped, and fixed-in-place; and the syringe rotation rate was 1,200 rpm; and temperatures were 30° C., 35° C., and 25° C.
Before the test, LPS and the peptide were diluted with PBS in advance, thereby obtaining 2 mM LPS and a 0.2 mM peptide. 300 μL of the peptide was put into cells in an ITC device, which had been washed, and 40 μL of LPS was contained in a syringe. Measurement conditions for ITC (temperature, the number of injections) were set, the syringe was inserted into the cell, and the ITC measurement began. When the measurement was completed, the Kd values of LPS and the peptide were calculated through analysis.

Experiment [2] in a line: LPS removal rates of reagents prepared with various peptides. The conditions noted are these: for Removal Rate: peptide conjugated to CNBr-activated agarose. The method, then: To confirm an LPS removal rate by preparing a reagent for removing LPS using peptides other than FP12-NH2, LPS removal rates were compared using the peptides listed in Table 11.
Reagents for removing LPS were prepared in one dose by the method of Example 2-2 for each peptide.
More specifically, the reagent for removing LPS was aliquoted by Lot at 2 mL into 5 mL tubes. After centrifugation, the supernatant was removed with a syringe, 2 mL of PBS was added and mixed up and down and centrifuged. […] The mixture was stirred for 2 hours at room temperature. After centrifugation, the supernatant was transferred to a new tube.

Here are results for twelve compounds from patent US20230287048A1, “COMPOSITION AND KIT FOR REMOVING LIPOPOLYSACCHARIDE” (HLB SCIENCE INC., priority 2020, published 2023).

pKd: −log10 of the molar value. Where a SMILES comes first, the peptide text is derived from it. Where no end group is shown, it is not given here. [ ]: non-standard residue; d: D form.

For `CC(C)C[C@@H](NC(=O)[C@H](N)CCCNC(=N)N)C(=O)N[C@H](CCCNC(=N)N)C(=O)N[C@@H](C(=O)N[C@H](CCCCN)C(=O)N[C@H](CC(C)C)C(=O)N[C@H](CCCNC(=N)N)C(=O)N[C@H](CCCNC(=N)N)C(=O)N[C@H](Cc1ccc(O)cc1)C(=O)N[C@H](CC(C)C)C(=O)N[C@H](CCCNC(=N)N)C(N)=O)C(C)C` [allD FP12-NH2, RLRVKLRRYLR-NH2] (H-[dR][dL][dR][dV][dK][dL][dR][dR][dY][dL][dR]-NH2; N-terminus assumed), in experiment [1], the “LPS binding affinity compared with FP1 (wild type, WT)” value is recorded as “the same as or higher than FP1” and the pKd (in general, −log10 of the Kd, conventionally taken in molar units) is 4.58. For the same compound, in experiment [2] (feeding LPS 100,000 EU/ml), the “Removal Rate” value is 58.6%.

Take `CC(C)C[C@@H](NC(=O)[C@H](N)CCCCN)C(=O)N[C@H](CCCNC(=N)N)C(=O)N[C@@H](C(=O)N[C@H](CCCCN)C(=O)N[C@H](CC(C)C)C(=O)N[C@H](CCCNC(=N)N)C(=O)N[C@H](CCCNC(=N)N)C(=O)N[C@H](Cc1ccc(O)cc1)C(=O)N[C@H](CC(C)C)C(=O)N[C@H](CCCNC(=N)N)C(N)=O)C(C)C` [allD FP13-NH2, KLRVKLRRYLR-NH2] (H-[dK][dL][dR][dV][dK][dL][dR][dR][dY][dL][dR]-NH2; N-terminus assumed): in experiment [1], the “LPS binding affinity compared with FP1 (wild type, WT)” value is recorded as “the same as or higher than FP1” and the pKd is 5.32. The “Removal Rate” value in experiment [2] (feeding LPS 100,000 EU/ml) was determined as 57.7%.

Regarding `CC(C)C[C@@H](NC(=O)[C@H](N)CCCCN)C(=O)N[C@H](CCCNC(=N)N)C(=O)N[C@@H](C(=O)N[C@H](CCCCN)C(=O)N[C@H](CC(C)C)C(=O)N[C@H](CCCNC(=N)N)C(=O)N[C@H](CCCNC(=N)N)C(=O)N[C@H](CCCCN)C(=O)N[C@H](CC(C)C)C(=O)N[C@H](CCCNC(=N)N)C(N)=O)C(C)C` [allD-FP-13-9k-NH2, Klrvklrrklr-NH2] (H-[dK][dL][dR][dV][dK][dL][dR][dR][dK][dL][dR]-NH2; N-terminus assumed), in experiment [1], the “LPS binding affinity compared with FP1 (wild type, WT)” value is recorded as “the same as or higher than FP1” and the pKd was 5.70.

Consider `CC(C)C[C@@H](NC(=O)[C@H](N)CCCCN)C(=O)N[C@H](CCCNC(=N)N)C(=O)N[C@@H](C(=O)N[C@H](CCCCN)C(=O)N[C@H](CC(C)C)C(=O)N[C@H](CCCNC(=N)N)C(=O)N[C@H](CCCNC(=N)N)C(=O)N[C@H](Cc1c[nH]c2ccccc12)C(=O)N[C@H](CC(C)C)C(=O)N[C@H](CCCNC(=N)N)C(N)=O)C(C)C` [allD-FP-13-9w-NH2, Klrvklrrwlr-NH2] (H-[dK][dL][dR][dV][dK][dL][dR][dR][dW][dL][dR]-NH2; N-terminus assumed), for which, in experiment [1], the “LPS binding affinity compared with FP1 (wild type, WT)” value is reported as “the same as or higher than FP1” and the pKd was 4.76.

`CC(C)C[C@@H](NC(=O)[C@H](N)CCCCN)C(=O)N[C@H](CCCNC(=N)N)C(=O)N[C@@H](C(=O)N[C@H](CCCCN)C(=O)N[C@H](CC(C)C)C(=O)N[C@H](CCCNC(=N)N)C(=O)N[C@H](CCCNC(=N)N)C(=O)N[C@H](Cc1ccc(O)cc1)C(=O)N[C@H](CC(C)C)C(=O)N[C@H](CCCNC(=N)N)C(N)=O)C(C)C` [allD-FP-13-NH2 (AcOH), KLRVKLRRYLR-NH2] (H-[dK][dL][dR][dV][dK][dL][dR][dR][dY][dL][dR]-NH2; N-terminus assumed): in experiment [1], the “LPS binding affinity compared with FP1 (wild type, WT)” value is “the same as or higher than FP1” and the pKd was 4.71.

Take “KLGVEAKRYLD [FP1(WT), KLGVEAKRYLD, reference compound]”: the pKd in experiment [1] is 3.62.

Consider KLGVEAKRYLR [FP3, KLGVEAKRYLR], for which, in experiment [1], the “LPS binding affinity compared with FP1 (wild type, WT)” value is recorded as “the same as or higher than FP1” and the pKd was 3.48.

Consider KLGVEALRYLD [FP9, KLGVEALRYLD], for which, in experiment [1], the “LPS binding affinity compared with FP1 (wild type, WT)” value is reported as “the same as or higher than FP1” and the pKd was 3.49.

For “KLRVKLRRYLR-NH2 [FP13-NH2, KLRVKLRRYLR-NH2]”, in experiment [1], the “LPS binding affinity compared with FP1 (wild type, WT)” value was “the same as or higher than FP1” and the pKd was 3.93. Moreover, the “Removal Rate” value in experiment [2] (feeding LPS 10,000 EU/ml) was 94.8%.

As to LRLGVEAKRYLR [FP5, LRLGVEAKRYLR], in experiment [1], the “LPS binding affinity compared with FP1 (wild type, WT)” value is recorded as “the same as or higher than FP1” and the pKd is 3.07.

With LRLGVELKRYLR [FP6, LRLGVELKRYLR], in experiment [1], the “LPS binding affinity compared with FP1 (wild type, WT)” value is “the same as or higher than FP1” and the negative-log Kd (pKd) is 4.95.

Regarding “RLRVKLRRYLR-NH2 [FP12-NH2, RLRVKLRRYLR-NH2]”, the “LPS binding affinity compared with FP1 (wild type, WT)” value in experiment [1] is listed as “the same as or higher than FP1”. The pKd in experiment [1] was 6.62. For the same compound, the results for the “Removal Rate” value in experiment [2] (feeding LPS 10,000 EU/ml) and in experiment [2] (feeding LPS 100,000 EU/ml) were 99.9% and 79.4%, respectively. Moreover, the “LPS removal rate, comparison of all polypeptides” value in experiment [2] (peptides of Table 11 conjugated to CNBr-activated agarose) is reported as “the highest removal rate”.
